Data published in PMC5218480 (PLoS ONE, 2017).

Test system: MV-4-11 cells
Test: Gene expression microarray analysis (Affymetrix PrimeView) and GSEA
Format: cell-based, human
Parameters: RFU PODN (11730768_x_at) / Fold change /veh PODN (11730768_x_at) / RFU LINC00158 (11744669_a_at) / Fold change /veh LINC00158 (11744669_a_at) / RFU DUSP10 (11751237_a_at) / Fold change /veh DUSP10 (11751237_a_at) / RFU ID3 (11757404_x_at) / Fold change /veh ID3 (11757404_x_at) / RFU PLEKHG5 (11737974_s_at) / Fold change /veh PLEKHG5 (11737974_s_at) / RFU LRRC4B (11730491_at) / Fold change /veh LRRC4B (11730491_at) / RFU GIMAP4 (11747438_a_at) / Fold change /veh GIMAP4 (11747438_a_at) / RFU KRT8 (11758183_x_at) / Fold change /veh KRT8 (11758183_x_at) / RFU CNN1 (11734310_a_at) / Fold change /veh CNN1 (11734310_a_at) / RFU VPS37D (11726825_at) / Fold change /veh VPS37D (11726825_at) / RFU C10orf10 (11716522_x_at) / Fold change /veh C10orf10 (11716522_x_at) / RFU KIR2DL2 /// KIR2DL4 /// KIR2DL5A /// KIR2DL5B /// KIR2DS1 /// KIR2DS2 /// KIR2DS3 /// KIR2DS4 /// KIR3DL3 /// KIR3DL3 /// KIR3DS1 (11738374_at) / Fold change /veh KIR2DL2 /// KIR2DL4 /// KIR2DL5A /// KIR2DL5B /// KIR2DS1 /// KIR2DS2 /// KIR2DS3 /// KIR2DS4 /// KIR3DL3 /// KIR3DL3 /// KIR3DS1 (11738374_at) / RFU C1QL1 (11718748_at) / Fold change /veh C1QL1 (11718748_at) / RFU TMPRSS4 (11747572_a_at) / Fold change /veh TMPRSS4 (11747572_a_at) / RFU HAMP (11756126_x_at) / Fold change /veh HAMP (11756126_x_at) / RFU RNFT2 (11725882_a_at) / Fold change /veh RNFT2 (11725882_a_at) / RFU NR4A2 (11747474_a_at) / Fold change /veh NR4A2 (11747474_a_at) / RFU ABCC12 (11746883_a_at) / Fold change /veh ABCC12 (11746883_a_at) / RFU TMEM136 (11760407_x_at) / Fold change /veh TMEM136 (11760407_x_at) / RFU CLDN22 /// WWC2 (11732394_at) / Fold change /veh CLDN22 /// WWC2 (11732394_at) / RFU HLA-DPB1 (11760878_x_at) / Fold change /veh HLA-DPB1 (11760878_x_at) / RFU SPINT1 (11716480_a_at) / Fold change /veh SPINT1 (11716480_a_at) / RFU GAP43 (11754022_s_at) / Fold change /veh GAP43 (11754022_s_at) / RFU A4GNT (11735810_at) / Fold change /veh A4GNT (11735810_at) / RFU PRB3 (11715151_x_at) / Fold change /veh PRB3 (11715151_x_at) / RFU TUBB4B (11761932_at) / Fold change /veh TUBB4B (11761932_at) / RFU CAPN14 (11732068_a_at) / Fold change /veh CAPN14 (11732068_a_at) / RFU TMCC2 (11721928_a_at) / Fold change /veh TMCC2 (11721928_a_at) / RFU IRGQ (11745062_a_at) / Fold change /veh IRGQ (11745062_a_at) / RFU FAM174B (11720279_a_at) / Fold change /veh FAM174B (11720279_a_at) / RFU TMPRSS4 (11748680_a_at) / Fold change /veh TMPRSS4 (11748680_a_at) / RFU FAM212B (11763350_a_at) / Fold change /veh FAM212B (11763350_a_at) / RFU PLEKHG5 (11743358_a_at) / Fold change /veh PLEKHG5 (11743358_a_at) / RFU ZSCAN30 (11745921_a_at) / Fold change /veh ZSCAN30 (11745921_a_at) / RFU CMKLR1 (11741424_a_at) / Fold change /veh CMKLR1 (11741424_a_at) / RFU LOC101060620 /// MAPK8IP1 (11723275_at) / Fold change /veh LOC101060620 /// MAPK8IP1 (11723275_at) / RFU SPTSSB (11747773_x_at) / Fold change /veh SPTSSB (11747773_x_at) / RFU PRSS12 (11739890_at) / Fold change /veh PRSS12 (11739890_at) / RFU BIN1 (11741810_x_at) / Fold change /veh BIN1 (11741810_x_at) / RFU WNT11 (11732464_a_at) / Fold change /veh WNT11 (11732464_a_at) / RFU C10orf10 (11716521_a_at) / Fold change /veh C10orf10 (11716521_a_at) / RFU C5orf56 (11738089_at) / Fold change /veh C5orf56 (11738089_at) / RFU CYB561 (11721691_x_at) / Fold change /veh CYB561 (11721691_x_at) / RFU ANKRD19P (11752326_a_at) / Fold change /veh ANKRD19P (11752326_a_at) / RFU OR2T12 /// OR2T33 /// OR2T8 (11738714_s_at) / Fold change /veh OR2T12 /// OR2T33 /// OR2T8 (11738714_s_at) / RFU VCAN (11748164_a_at) / Fold change /veh VCAN (11748164_a_at) / RFU JSRP1 (11732532_at) / Fold change /veh JSRP1 (11732532_at) / RFU KRTAP10-11 (11738290_x_at) / Fold change /veh KRTAP10-11 (11738290_x_at) / RFU MYO3A (11730013_a_at) / Fold change /veh MYO3A (11730013_a_at) / RFU EBF3 (11725865_a_at) / Fold change /veh EBF3 (11725865_a_at) / RFU CAMK2N1 (11719241_x_at) / Fold change /veh CAMK2N1 (11719241_x_at) / RFU C5orf56 (11738088_a_at) / Fold change /veh C5orf56 (11738088_a_at) / RFU OLFML3 (11715873_a_at) / Fold change /veh OLFML3 (11715873_a_at) / RFU LOC100653217 /// NTM (11731650_a_at) / Fold change /veh LOC100653217 /// NTM (11731650_a_at) / RFU MAPK11 (11762145_a_at) / Fold change /veh MAPK11 (11762145_a_at) / RFU FIZ1 (11724087_x_at) / Fold change /veh FIZ1 (11724087_x_at) / RFU OASL (11726364_x_at) / Fold change /veh OASL (11726364_x_at) / RFU SOX15 (11748057_x_at) / Fold change /veh SOX15 (11748057_x_at) / RFU CD79A (11719716_a_at) / Fold change /veh CD79A (11719716_a_at) / RFU HIST1H1D (11736915_at) / Fold change /veh HIST1H1D (11736915_at) / RFU CASKIN2 (11723855_a_at) / Fold change /veh CASKIN2 (11723855_a_at) / RFU LOC730098 (11760151_x_at) / Fold change /veh LOC730098 (11760151_x_at) / RFU OR4N2 (11742367_at) / Fold change /veh OR4N2 (11742367_at) / RFU PRRT2 (11749266_a_at) / Fold change /veh PRRT2 (11749266_a_at) / RFU SNX32 (11753110_a_at) / Fold change /veh SNX32 (11753110_a_at) / RFU CDHR5 (11726645_a_at) / Fold change /veh CDHR5 (11726645_a_at) / RFU RCAN1 (11760418_a_at) / Fold change /veh RCAN1 (11760418_a_at) / RFU FAM167A (11723789_a_at) / Fold change /veh FAM167A (11723789_a_at) / RFU FAM26E (11764081_at) / Fold change /veh FAM26E (11764081_at) / RFU ISYNA1 (11749810_s_at) / Fold change /veh ISYNA1 (11749810_s_at) / RFU ACY1 (11761880_at) / Fold change /veh ACY1 (11761880_at) / RFU 11764098_at / Fold change /veh 11764098_at / RFU SAMD14 (11745864_x_at) / Fold change /veh SAMD14 (11745864_x_at) / RFU NPB (11741838_a_at) / Fold change /veh NPB (11741838_a_at) / RFU TMPRSS6 (11731388_a_at) / Fold change /veh TMPRSS6 (11731388_a_at) / RFU KRTAP10-2 (11738614_at) / Fold change /veh KRTAP10-2 (11738614_at) / RFU ARHGAP8 /// PRR5-ARHGAP8 (11727945_x_at) / Fold change /veh ARHGAP8 /// PRR5-ARHGAP8 (11727945_x_at) / RFU KRTAP5-7 /// NADSYN1 (11734609_at) / Fold change /veh KRTAP5-7 /// NADSYN1 (11734609_at) / RFU RASL12 (11751679_a_at) / Fold change /veh RASL12 (11751679_a_at) / RFU CDKN2B (11736163_a_at) / Fold change /veh CDKN2B (11736163_a_at) / RFU PRF1 (11729649_at) / Fold change /veh PRF1 (11729649_at) / RFU, ZNF638 /// ZNF638-IT1 / Fold change vs veh, ZNF638 /// ZNF638-IT1 / RFU, PANK3 / Fold change vs veh, PANK3 / RFU, SH3YL1 / Fold change vs veh, SH3YL1 / RFU, ZEB2 / Fold change vs veh, ZEB2 / RFU, NRIP1 / Fold change vs veh, NRIP1 / RFU, PTTG1IP / Fold change vs veh, PTTG1IP / RFU, CAPN2 / Fold change vs veh, CAPN2 / RFU, MED14 / Fold change vs veh, MED14 / RFU, SNORA58 / Fold change vs veh, SNORA58 / RFU, C1orf63 / Fold change vs veh, C1orf63 / RFU, LRRFIP1 / Fold change vs veh, LRRFIP1 / RFU, NDUFAF7 / Fold change vs veh, NDUFAF7 / RFU, SLC12A2 / Fold change vs veh, SLC12A2 / RFU, IBTK / Fold change vs veh, IBTK / RFU, ESF1 / Fold change vs veh, ESF1 / Fold change vs veh, TMEM50B / RFU, TAOK1 / Fold change vs veh, TAOK1 / RFU, ACBD3 / Fold change vs veh, ACBD3 / RFU, TMA16 / Fold change vs veh, TMA16 / RFU, RWDD3 / Fold change vs veh, RWDD3 / RFU, BCAT1 / Fold change vs veh, BCAT1 / RFU, EDEM3 / Fold change vs veh, EDEM3 / RFU, TMEM33 / Fold change vs veh, TMEM33 / RFU, WDR75 / Fold change vs veh, WDR75 / RFU, AHCTF1 / Fold change vs veh, AHCTF1 / RFU, TFRC / Fold change vs veh, TFRC / RFU, ZDHHC17 / Fold change vs veh, ZDHHC17 / RFU, NOM1 / Fold change vs veh, NOM1 / RFU, ARL8B / Fold change vs veh, ARL8B / RFU, ZBTB11 / Fold change vs veh, ZBTB11 / RFU, TAMM41 / Fold change vs veh, TAMM41 / RFU, KIAA1704 /// LOC100996395 / Fold change vs veh, KIAA1704 /// LOC100996395 / RFU, ING1 / Fold change vs veh, ING1 / RFU, TRMT61B / Fold change vs veh, TRMT61B / RFU, FUBP3 / Fold change vs veh, FUBP3 / RFU, TP53 / Fold change vs veh, TP53 / RFU, TNKS2 / Fold change vs veh, TNKS2 / RFU, ZFP14 / Fold change vs veh, ZFP14 / RFU, ACTR2 / Fold change vs veh, ACTR2 / RFU, PPP3R1 / Fold change vs veh, PPP3R1 / RFU, PIK3R1 / Fold change vs veh, PIK3R1 / RFU, HNRNPA1 / Fold change vs veh, HNRNPA1 / RFU, RNF170 / Fold change vs veh, RNF170 / RFU, ZNF28 / Fold change vs veh, ZNF28 / RFU, RNGTT / Fold change vs veh, RNGTT / RFU, OGT / Fold change vs veh, OGT / RFU, BRD1 / Fold change vs veh, BRD1 / RFU, MARS / Fold change vs veh, MARS / RFU, ZNF655 / Fold change vs veh, ZNF655 / RFU, FAHD1 / Fold change vs veh, FAHD1 / RFU, BDP1 / Fold change vs veh, BDP1 / RFU, LRRCC1 / Fold change vs veh, LRRCC1 / RFU, ARID1A / Fold change vs veh, ARID1A / RFU, ZNF146 / Fold change vs veh, ZNF146 / RFU, ZNF330 / Fold change vs veh, ZNF330 / RFU, GPN3 / Fold change vs veh, GPN3 / RFU, C9orf123 / Fold change vs veh, C9orf123 / RFU, N4BP2L2 / Fold change vs veh, N4BP2L2 / RFU, ARFIP1 / Fold change vs veh, ARFIP1 / RFU, FAM179B / Fold change vs veh, FAM179B / RFU, BCL10 / Fold change vs veh, BCL10 / RFU, UHRF1BP1L / Fold change vs veh, UHRF1BP1L / RFU, BET1 / Fold change vs veh, BET1 / RFU, CNOT2 / Fold change vs veh, CNOT2 / RFU, ZNF268 / Fold change vs veh, ZNF268 / Fold change vs veh, ZNF507 / RFU, DGCR2 / Fold change vs veh, DGCR2 / RFU, WDSUB1 / Fold change vs veh, WDSUB1 / Fold change vs veh, HSP90B1 /// MIR3652 / RFU, ADSS / Fold change vs veh, ADSS / RFU, GK / Fold change vs veh, GK / RFU, ZNF148 / Fold change vs veh, ZNF148 / RFU, TAF9 / Fold change vs veh, TAF9 / RFU, SLC1A5 / Fold change vs veh, SLC1A5 / RFU, SLMO2 / Fold change vs veh, SLMO2 / RFU, ABCC4 / Fold change vs veh, ABCC4 / RFU, LOC101060439 /// RAP1B / Fold change vs veh, LOC101060439 /// RAP1B / RFU, RFX7 / Fold change vs veh, RFX7 / RFU, GTPBP10 / Fold change vs veh, GTPBP10 / RFU, CNEP1R1 / Fold change vs veh, CNEP1R1 / RFU, BIVM-ERCC5 /// ERCC5 / Fold change vs veh, BIVM-ERCC5 /// ERCC5 / RFU, ILF3 / Fold change vs veh, ILF3 / RFU 11762660_at / Fold change /veh 11762660_at / RFU VCAN (11757783_s_at) / Fold change /veh VCAN (11757783_s_at) / RFU DDX43 (11728927_at) / Fold change /veh DDX43 (11728927_at) / RFU KRT8 (11758188_x_at) / Fold change /veh KRT8 (11758188_x_at) / RFU NKD1 (11759106_at) / Fold change /veh NKD1 (11759106_at) / RFU SRD5A1 (11742802_a_at) / Fold change /veh SRD5A1 (11742802_a_at) / RFU TPSAB1 /// TPSB2 (11721975_s_at) / Fold change /veh TPSAB1 /// TPSB2 (11721975_s_at) / RFU GSTM3 (11746129_a_at) / Fold change /veh GSTM3 (11746129_a_at) / RFU IL23R (11737362_x_at) / Fold change /veh IL23R (11737362_x_at) / RFU TMEM51 (11727254_a_at) / Fold change /veh TMEM51 (11727254_a_at) / RFU PIWIL2 (11732686_x_at) / Fold change /veh PIWIL2 (11732686_x_at) / RFU ORM1 (11744905_x_at) / Fold change /veh ORM1 (11744905_x_at) / RFU CCDC152 (11743942_at) / Fold change /veh CCDC152 (11743942_at) / RFU ECM1 (11717891_a_at) / Fold change /veh ECM1 (11717891_a_at) / RFU IL23R (11748794_a_at) / Fold change /veh IL23R (11748794_a_at) / RFU TNFAIP8L3 (11732012_x_at) / Fold change /veh TNFAIP8L3 (11732012_x_at) / RFU MBOAT4 (11741988_at) / Fold change /veh MBOAT4 (11741988_at) / RFU 11764193_at / Fold change /veh 11764193_at / RFU TMEM53 (11763286_at) / Fold change /veh TMEM53 (11763286_at) / RFU MAGEB2 (11727129_at) / Fold change /veh MAGEB2 (11727129_at) / RFU TMEM200A (11744735_a_at) / Fold change /veh TMEM200A (11744735_a_at) / RFU CCDC152 (11751479_a_at) / Fold change /veh CCDC152 (11751479_a_at) / RFU FAM211A (11726209_a_at) / Fold change /veh FAM211A (11726209_a_at) / RFU RGS16 (11746705_a_at) / Fold change /veh RGS16 (11746705_a_at) / RFU VCAN (11755009_s_at) / Fold change /veh VCAN (11755009_s_at) / RFU RHOB (11743442_s_at) / Fold change /veh RHOB (11743442_s_at) / RFU RGS16 (11720943_a_at) / Fold change /veh RGS16 (11720943_a_at) / RFU RGS16 (11720944_at) / Fold change /veh RGS16 (11720944_at) / RFU, VPS4B / Fold change vs veh, VPS4B / RFU, CREB1 / Fold change vs veh, CREB1 / RFU, DNAJC13 / Fold change vs veh, DNAJC13 / RFU, GNAQ / Fold change vs veh, GNAQ / RFU, CDK5R1 / Fold change vs veh, CDK5R1 / RFU, ZRANB3 / Fold change vs veh, ZRANB3 / RFU, CUL4A / Fold change vs veh, CUL4A / RFU, CCNY / Fold change vs veh, CCNY / RFU, UFL1 / Fold change vs veh, UFL1 / RFU, COG3 / Fold change vs veh, COG3 / RFU, DIAPH2 / Fold change vs veh, DIAPH2 / RFU, SKA2 / Fold change vs veh, SKA2 / RFU, AFF3 / Fold change vs veh, AFF3 / RFU, LMF1 / Fold change vs veh, LMF1 / RFU, IPO11 / Fold change vs veh, IPO11 / RFU, DFFB / Fold change vs veh, DFFB / RFU, FOXP1 / Fold change vs veh, FOXP1 / RFU, CARD8 / Fold change vs veh, CARD8 / RFU, STRN3 / Fold change vs veh, STRN3 / RFU, ADK / Fold change vs veh, ADK / RFU, RASSF2 / Fold change vs veh, RASSF2 / RFU, WIPF1 / Fold change vs veh, WIPF1 / RFU, LARP1B / Fold change vs veh, LARP1B / RFU, RASA1 / Fold change vs veh, RASA1 / RFU, RB1 / Fold change vs veh, RB1 / RFU, PPFIA1 / Fold change vs veh, PPFIA1 / RFU, MAT2A / Fold change vs veh, MAT2A / RFU, CCT5 / Fold change vs veh, CCT5 / RFU, WDR92 / Fold change vs veh, WDR92 / RFU, CUX1 / Fold change vs veh, CUX1 / RFU, TTC7A / Fold change vs veh, TTC7A / RFU, TMEM135 / Fold change vs veh, TMEM135 / RFU, DEPTOR / Fold change vs veh, DEPTOR / RFU, CPM / Fold change vs veh, CPM / RFU, DNAJB6 / Fold change vs veh, DNAJB6 / RFU, CACNA2D3 / Fold change vs veh, CACNA2D3 / RFU, DTX4 / Fold change vs veh, DTX4 / RFU, TFCP2 / Fold change vs veh, TFCP2 / RFU, GMCL1 /// GMCL1P1 / Fold change vs veh, GMCL1 /// GMCL1P1 / RFU, AEBP2 / Fold change vs veh, AEBP2 / RFU, SNHG1 /// SNORD22 /// SNORD25 /// SNORD26 /// SNORD27 /// SNORD28 /// SNORD29 /// SNORD31 / Fold change vs veh, SNHG1 /// SNORD22 /// SNORD25 /// SNORD26 /// SNORD27 /// SNORD28 /// SNORD29 /// SNORD31 / Fold change (Aza/veh), C12orf56 (ProbeSet 11735607_a_at) / Fold change (ACY-1035/veh), C12orf56 (ProbeSet 11735607_a_at) / Fold change (Aza/veh), FGFR1OP (ProbeSet 11751329_s_at) / Fold change (ACY-1035/veh), FGFR1OP (ProbeSet 11751329_s_at) / Fold change (Aza/veh), VPS36 (ProbeSet 11739960_a_at) / Fold change (ACY-1035/veh), VPS36 (ProbeSet 11739960_a_at) / RFU SYPL1 (11715823_x_at) / Fold change /veh SYPL1 (11715823_x_at) / RFU IGFBP7 (11715501_s_at) / Fold change /veh IGFBP7 (11715501_s_at) / RFU REEP3 (11722064_at) / Fold change /veh REEP3 (11722064_at) / RFU IGLL1 (11728026_x_at) / Fold change /veh IGLL1 (11728026_x_at): dose or concentration left out as unconfirmed
Settings: ProbeSet 11745260_x_at; LIST B

Question: Which “Fold change vs veh, SLC12A2” value does the source give for `Nc1ncn([C@@H]2O[C@H](CO)[C@@H](O)[C@H]2O)c(=O)n1` [azacitidine] here?
Answer: The value was 0.91.
